Reference: patent publication US11648254B2 (Kumquat Biosciences Inc., priority 2021, dated 2023)
pIC50: −log10 of the molar value. Where two headings read alike, the source gives them in different places.

Experiments:
SOS1 = SOS1 (Homo sapiens (Human), UniProt Q07889); assay: Ras-SOS interaction assay (HTRF); format: biochemical
[1] = system: NCI-H1975 cells (EGFR T790M L858R); assay: EGFR-SOS cellular inhibition assay (CellTiter-Glo, 3D); format: cell-based; settings: Homo sapiens
[2] = system: MIA PaCa-2 cells (K-Ras G12C); assay: Ras-SOS cellular growth inhibition assay (CellTiter-Glo, 3D); format: cell-based; settings: Homo sapiens
Procedure, shortened: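 MIA PaCa-2 cells grown in ultra-low-attachment plates (3D) in DMEM/Ham's F12 with 10% FCS and 2.5% horse serum, treated the day after seeding with a 9-point 3-fold compound series for about 5 days. Viability by CellTiter-Glo luminescence; IC50 from four-parameter fit.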

[3] = K-RasG13D utilized, read-out: IC50 inhibition of SOS
[4] = K-RasG13D, read-out: IC50 value against SOS1
[5] = 120 h, NCI-H1975, 3D proliferation, about 5 days, read-out: Bio-Cell-Prolif-3D (H1975 IC50)
[6] = NCI-H1975, EGFR T790M L858R, read-out: IC50 in inhibiting growth of NCI-H1975 cell line
[7] = MIA PaCa-2, 120 h, MIA PaCa-2, 3D proliferation, about 5 days, read-out: Bio-Cell-Prolif-3D (MiaPaca2 IC50)
[8] = MIA PaCa-2, MIA PaCa-2, read-out: IC50 in inhibiting MIA PaCa-2 cell growth

Chain of SOS1 (Q07889 564-1049): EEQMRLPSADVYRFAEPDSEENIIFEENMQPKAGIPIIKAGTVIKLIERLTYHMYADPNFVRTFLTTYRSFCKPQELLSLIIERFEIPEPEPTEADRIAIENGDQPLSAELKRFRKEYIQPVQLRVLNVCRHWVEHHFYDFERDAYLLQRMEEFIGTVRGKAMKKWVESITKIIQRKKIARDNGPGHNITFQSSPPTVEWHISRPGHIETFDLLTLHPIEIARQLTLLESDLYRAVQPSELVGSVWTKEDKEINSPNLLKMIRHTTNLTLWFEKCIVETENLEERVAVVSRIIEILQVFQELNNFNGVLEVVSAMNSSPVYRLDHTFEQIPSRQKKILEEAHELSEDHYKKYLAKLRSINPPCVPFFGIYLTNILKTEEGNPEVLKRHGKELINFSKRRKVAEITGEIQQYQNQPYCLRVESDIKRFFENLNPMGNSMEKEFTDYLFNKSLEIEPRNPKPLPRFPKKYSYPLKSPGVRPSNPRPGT

SMILES | pIC50 (SOS1; [3]) | pIC50 (SOS1; [4]) | pIC50 [1, 5] | pIC50 [1, 6] | pIC50 [2, 7] | pIC50 [2, 8]
Cc1nc(N[C@H](C)c2cccc(C(F)(F)F)c2F)c2cc(C3CCS(=O)(=O)CC3)c(Cl)nc2n1 [Compound 262, (R)-4-(7-chloro-4-((1-(2-fluoro-3-(trifluoromethyl)phenyl)ethyl)amino)-2-methylpyrido[2,3-d]pyrimidin-6-yl)tetrahydro-2H-thiopyran 1,1-dioxide] | > 7.00 | > 7.30 | ≥ 6.00 | > 6.30 | ≥ 6.00 | –
COc1nc2ncnc(N[C@H](C)c3cccc(C(F)(F)C4CCN(C(C)C)CC4)c3F)c2cc1N1CCN(C(C)C)CC1 [Compound 263, (R)—N-(1-(3-(difluoro(1-isopropylpiperidin-4-yl)methyl)-2-fluorophenyl)ethyl)-6-(4-isopropylpiperazin-1-yl)-7-methoxypyrido[2,3-d]pyrimidin-4-amine] | > 7.00 | > 7.30 | ≥ 6.00 | > 6.30 | ≥ 6.00 | > 6.30
C[C@H](O)C(F)(F)c1cccc([C@@H](C)Nc2ncnc3nc(Cl)c(C4(C#N)CC4)cc23)c1 [Compound 265, 1-(7-chloro-4-(((R)-1-(3-((S)-1,1-difluoro-2-hydroxypropyl)phenyl)ethyl)amino)pyrido[2,3-d]pyrimidin-6-yl) cyclopropane-1-carbonitrile] | > 7.00 | > 7.30 | ≥ 6.00 | > 6.30 | ≥ 6.00 | > 6.30
CC(C)N1CCC(c2cc3c(N[C@H](C)c4cccc(C(F)(F)C5CCN(C(C)C)CC5)c4)ncnc3nc2Cl)CC1 [Compound 268, (R)-7-chloro-N-(1-(3-(difluoro(1-isopropylpiperidin-4-yl)methyl)phenyl)ethyl)-6-(1-isopropylpiperidin-4-yl)pyrido[2,3-d] pyrimidin-4-amine] | > 7.00 | > 7.30 | ≥ 6.00 | > 6.30 | ≥ 6.00 | > 6.30
Cc1nc(N[C@H](C)c2cccc(C(F)(F)C3CCN(C(C)C)CC3)c2)c2cc(C3CCN(C(C)C)CC3)c(Cl)nc2n1 [Compound 269, (R)-7-chloro-N-(1-(3-(difluoro(1-isopropylpiperidin-4-yl)methyl)phenyl)ethyl)-6-(1-isopropylpiperidin-4-yl)-2-methylpyrido[2,3-d] pyrimidin-4-amine] | > 7.00 | > 7.30 | ≥ 6.00 | > 6.30 | ≥ 6.00 | > 6.30
COc1nc2nc(OC[C@H]3CCCN3C)nc(N[C@H](C)c3cccc(C(F)F)c3F)c2cc1C1(C#N)CC1 [Compound 270, 1-(4-(((R)-1-(3-(difluoromethyl)-2-fluorophenyl)ethyl)amino)-7-methoxy-2-(((R)-1-methylpyrrolidin-2-yl)methoxy)pyrido [2,3-d]pyrimidin-6-yl)cyclopropane-1-carbonitrile] | > 7.00 | > 7.30 | ≥ 6.00 | > 6.30 | ≥ 6.00 | > 6.30
COc1nc2nc(C)nc(N[C@H](C)c3cccc(C(F)(F)C4CN(C)C4)c3)c2cc1N1CCS(=O)(=O)CC1 [Compound 272, (R)-4-(4-((1-(3-(difluoro(1-methylazetidin-3-yl)methyl)phenyl)ethyl)amino)-7-methoxy-2-methylpyrido[2,3-d]pyrimidin-6-yl)thiomorpholine 1,1-dioxide] | – | > 7.30 | ≥ 6.00 | > 6.30 | ≥ 6.00 | –
C#Cc1nc(N[C@H](C)c2cccc(C(F)F)c2F)c2cc(C3(C#N)CC3)c(OC)nc2n1 [Compound 276, (R)-1-(4-((1-(3-(difluoromethyl)-2-fluorophenyl)ethyl)amino)-2-ethynyl-7-methoxypyrido[2,3-d]pyrimidin-6-yl)cyclopropane-1-carbonitrile] | > 7.00 | – | 5.00 to 6.00 | – | 5.00 to 6.00 | –
COc1nc2nc(C)nc(N[C@H](C)c3cccc(C(F)(F)CN4CCC4)c3F)c2cc1C1(C#N)CC1 [Compound 277, (R)-1-(4-((1-(3-(2-(azetidin-1-yl)-1,1-difluoroethyl)-2-fluorophenyl)ethyl)amino)-7-methoxy-2-methylpyrido [2,3-d]pyrimidin-6-yl)cyclopropane-1-carbonitrile] | > 7.00 | > 7.30 | ≥ 6.00 | > 6.30 | ≥ 6.00 | –
COc1nc2nc(OCC3COC3)nc(N[C@H](C)c3cccc(C(F)F)c3F)c2cc1C1(C#N)CC1 [Compound 278, (R)-1-(4-((1-(3-(difluoromethyl)-2-fluorophenyl)ethyl)amino)-7-methoxy-2-(oxetan-3-ylmethoxy)pyrido [2,3-d]pyrimidin-6-yl)cyclopropane-1-carbonitrile] | > 7.00 | – | 5.00 to 6.00 | – | < 5.00 | –
COc1nc2ncnc(N[C@H](C)c3cccc(C(F)(F)C4CN(C(C)C)C4)c3F)c2cc1C1CCS(=O)(=O)CC1 [Compound 283, (R)-4-(4-((1-(3-(difluoro(1-isopropylazetidin-3-yl)methyl)-2-fluorophenyl)ethyl)amino)-7-methoxypyrido[2,3-d]pyrimidin-6-yl)tetrahydro-2H-thiopyran-1,1-dioxide] | > 7.00 | – | ≥ 6.00 | > 6.30 | ≥ 6.00 | > 6.30
COc1nc2nc(C)nc(N[C@H](C)c3cccc(C(F)(F)F)c3C)c2cc1C1(C#N)CCN(C(C)C)CC1 [Compound 285, (R)-1-isopropyl-4-(7-methoxy-2-methyl-4-((1-(2-methyl-3-(trifluoromethyl)phenyl)ethyl)amino)pyrido[2,3-d]pyrimidin-6-yl)piperidine-4-carbonitrile] | > 7.00 | > 7.30 | ≥ 6.00 | – | 5.00 to 6.00 | –
CCN1CCC(c2cc3c(N[C@H](C)c4cccc(C(F)(F)F)c4F)nc(C)nc3nc2OC)CC1 [Compound 288, (R)-6-(1-ethylpiperidin-4-yl)-N-(1-(2-fluoro-3-(trifluoromethyl)phenyl)ethyl)-7-methoxy-2-methylpyrido [2,3-d]pyrimidin-4-amine] | > 7.00 | > 7.30 | ≥ 6.00 | > 6.30 | ≥ 6.00 | > 6.30
COc1nc2ncnc(N[C@H](C)c3cccc(C(F)(F)C4CCC(N(C)C)CC4)c3F)c2cc1C1CCS(=O)(=O)CC1 (stereo partly drawn) [Compound 289, (R)-4-(4-((1-(3-((4-(dimethylamino)cyclohexyl)difluoromethyl)-2-fluorophenyl)ethyl)amino)-7-methoxypyrido[2,3-d]pyrimidin-6-yl)tetrahydro-2H-thiopyran 1,1-dioxide] | > 7.00 | > 7.30 | ≥ 6.00 | > 6.30 | ≥ 6.00 | > 6.30
CC(C)N1CCC(C(F)(F)c2cccc([C@@H](C)Nc3ncnc4nc(Cl)c(N5CCN(C(C)C)CC5)cc34)c2)CC1 [Compound 291, (R)-7-chloro-N-(1-(3-(difluoro(1-isopropylpiperidin-4-yl)methyl)phenyl)ethyl)-6-(4-isopropylpiperazin-1-yl)pyrido[2,3-d] pyrimidin-4-amine] | > 7.00 | > 7.30 | ≥ 6.00 | > 6.30 | ≥ 6.00 | > 6.30
